Laboratory results taken from patent publication US10105357B2, “Indication of antibiotic drugs for preparation of cancer inhibition pharmaceutical composition” (LAUNX BIOMEDICAL CO., LTD., priority 2014, dated 2018).
Where two headings read alike, the source gives them in different places.

What was measured:
[1] = tested on: A549 (Lung Adenocarcinoma); test: Cell viability analysis, lung cancer A549; format: cell-based, human; conditions: Homo sapiens, A549, 72 h
TOV-21G = test: Cell viability analysis, ovarian cancer TOV-21G; format: cell-based, human; conditions: Homo sapiens, TOV21G, 72 h; TOV-21G; repeated experiment; read-out: The results of antibiotic drug inhibiting cancer cell lines (cell viability analysis), TOV-21G
[2] = tested on: AGS (Gastric Adenocarcinoma); test: Cell viability analysis, gastric cancer AGS; format: cell-based, human; conditions: Homo sapiens, 72 h
[3] = tested on: A375 (Amelanotic Melanoma); test: Cell viability analysis, skin cancer A375; format: cell-based, human; conditions: Homo sapiens, A-375, 72 h
[4] = tested on: HepG2 (Hepatocellular Carcinoma); test: Cell viability analysis, hepatic cancer HepG2; format: cell-based, human; conditions: Homo sapiens, HepG2, 72 h
[5] = tested on: HL-60 (Acute Promyelocytic Leukemia); test: Cell viability analysis, leukemia HL-60; format: cell-based, human; conditions: Homo sapiens, HL-60, 72 h, drug 10 μM, 72 hours, WST-1, OD450 nm; read-out: cell viability (survival rate), HL-60
[6] = tested on: SAS (Tongue squamous cell carcinoma); test: Cell viability analysis, tongue cancer SAS; format: cell-based, human; conditions: Homo sapiens, 72 h; SAS; repeated experiment; read-out: The results of antibiotic drug inhibiting cancer cell lines (cell viability analysis), SAS
[7] = tested on: MCF7 (Mammary Gland, Adenocarcinoma); test: Cell viability analysis, breast cancer MCF7; format: cell-based, human; conditions: Homo sapiens, MCF7, 72 h
[8] = tested on: HeLa (Cervix Adenocarcinoma); test: Cell viability analysis, cervical cancer HeLa; format: cell-based, human; conditions: Homo sapiens, HeLa, 72 h, HeLa
[9] = tested on: 786-O (Renal adenocarcinoma); test: Cell viability analysis, renal cancer 786-O; format: cell-based, human; conditions: Homo sapiens, 786-0, 72 h; 786-O; repeated experiment; read-out: The results of antibiotic drug inhibiting cancer cell lines (cell viability analysis), 786-O
[10] = tested on: BCC (basal cell carcinoma); test: Cell viability analysis, skin cancer BCC; format: cell-based, human; conditions: Homo sapiens, 72 h; BCC; repeated experiment; read-out: The results of antibiotic drug inhibiting cancer cell lines (cell viability analysis), BCC
[11] = tested on: HCT116 (p53+) (Colorectal Carcinoma)
[12] = tested on: LoVo (Colorectal Adenocarcinoma); test: Cell viability analysis, colon cancer LoVo; format: cell-based, human; conditions: Homo sapiens, LoVo, 72 h
AsPC-1 = test: Cell viability analysis, pancreatic cancer AsPC-1; format: cell-based, human; conditions: Homo sapiens, ASPC1, 72 h; AsPC-1; repeated experiment; read-out: The results of antibiotic drug inhibiting cancer cell lines (cell viability analysis), AsPC-1
[13] = tested on: HI650 (Lung Adenocarcinoma); test: Cell viability analysis, lung cancer HI650; format: cell-based, human; conditions: Homo sapiens, NCI-H1650, 72 h
cancer cell lines = test: Cell viability analysis (WST-1) on cancer cell lines; format: cell-based, human; conditions: drug 10 μM, 72 hours, WST-1; Table 3
[14] = tested on: PC3 (p53−) (Prostate Adenocarcinoma); test: Cell viability analysis, prostate cancer PC3; format: cell-based, human; conditions: Homo sapiens, 72 h
[15] = tested on: MKN-45 (Gastric Adenocarcinoma); test: Cell viability analysis, gastric cancer MKN-45; format: cell-based, human; conditions: Homo sapiens, MKN-45, 72 h
[16] = tested on: C-33A (Cervical carcinoma); test: Cell viability analysis, cervical cancer C-33A; format: cell-based, human; conditions: Homo sapiens, 72 h; C-33A; repeated experiment; read-out: The results of antibiotic drug inhibiting cancer cell lines (cell viability analysis), C-33A
U-2OS = test: Cell viability analysis, osteosarcoma U-2OS; format: cell-based, human; conditions: Homo sapiens, 72 h; U2OS; repeated experiment; read-out: The results of antibiotic drug inhibiting cancer cell lines (cell viability analysis), U2OS
[17] = tested on: MDA-MB-231 (Mammary Gland, Adenocarcinoma); test: Cell viability analysis, breast cancer MDA-MB-231; format: cell-based, human; conditions: Homo sapiens, MDA-MB-231, 72 h; MDA-MB231; repeated experiment; read-out: The results of antibiotic drug inhibiting cancer cell lines (cell viability analysis), MDA-MB231
BxPC-3 = test: Cell viability analysis, pancreatic cancer BxPC-3; format: cell-based, human; conditions: Homo sapiens, 72 h; BxPC-3; repeated experiment; read-out: The results of antibiotic drug inhibiting cancer cell lines (cell viability analysis), BxPC-3
[18] = tested on: Hep3B (hepatocellular carcinoma); test: Cell viability analysis, hepatic cancer Hep3B; format: cell-based, human; conditions: Homo sapiens, 72 h; Hep3B; repeated experiment; read-out: The results of antibiotic drug inhibiting cancer cell lines (cell viability analysis), Hep3B
NIH: OVCAR-3 = test: Cell viability analysis, ovarian cancer NIH: OVCAR-3; format: cell-based, human; conditions: Homo sapiens, 72 h; NIH-OVCAR-3; repeated experiment; read-out: The results of antibiotic drug inhibiting cancer cell lines (cell viability analysis), NIH-OVCAR-3
T24 = test: Cell viability analysis, bladder cancer T24; format: cell-based, human; conditions: Homo sapiens, T-24, 72 h; T24; repeated experiment; read-out: The results of antibiotic drug inhibiting cancer cell lines (cell viability analysis), T24

Compound: NC(=O)N/N=C/c1ccc([N+](=O)[O-])o1 [Nitrofurazone (Nitrofural), Nitrofurazone]
- viability at 10 µM ([1]; A549, repeated experiment, read-out: The results of antibiotic drug inhibiting cancer cell lines (cell viability analysis), A549): 114%
- viability at 10 µM ([1]; drug 10 μM, 72 hours, WST-1, OD450 nm, read-out: cell viability (survival rate), A549): 44.3%
- viability at 10 µM (TOV-21G): 95.7%
- viability at 10 µM ([2]; AGS, repeated experiment, read-out: The results of antibiotic drug inhibiting cancer cell lines (cell viability analysis), AGS): 88.2%
- viability at 10 µM ([2]; drug 10 μM, 72 hours, WST-1, OD450 nm, read-out: cell viability (survival rate), AGS): 28%
- viability at 10 µM ([3]; A375, repeated experiment, read-out: The results of antibiotic drug inhibiting cancer cell lines (cell viability analysis), A375): 94.7%
- viability at 10 µM ([3]; drug 10 μM, 72 hours, WST-1, OD450 nm, read-out: cell viability (survival rate), A375): 54.9%
- viability at 10 µM ([4]; HepG2, repeated experiment, read-out: The results of antibiotic drug inhibiting cancer cell lines (cell viability analysis), HepG2): 95.4%
- viability at 10 µM ([4]; drug 10 μM, 72 hours, WST-1, OD450 nm, read-out: cell viability (survival rate), HepG2): 82.4%
- viability at 10 µM [5]: 85.6%
- viability at 10 µM [6]: 92.3%
- viability at 10 µM ([7]; MCF-7, repeated experiment, read-out: The results of antibiotic drug inhibiting cancer cell lines (cell viability analysis), MCF-7): 107%
- viability at 10 µM ([7]; drug 10 μM, 72 hours, WST-1, OD450 nm, read-out: cell viability (survival rate), MCF7): 35.3%
- viability at 10 µM ([8]; repeated experiment, read-out: The results of antibiotic drug inhibiting cancer cell lines (cell viability analysis), HeLa): 51.2%
- viability at 10 µM ([8]; drug 10 μM, 72 hours, WST-1, OD450 nm, read-out: cell viability (survival rate), HeLa): 55.4%
- viability at 10 µM [9]: 90%
- viability at 10 µM [10]: 93%
- viability [11]: 110%
- viability at 10 µM ([12]; read-out: The results of antibiotic drug inhibiting cancer cell lines (cell viability analysis), LoVo, repeated experiment): 84.8%
- viability at 10 µM ([12]; read-out: cell viability (survival rate), LoVo, drug 10 μM, 72 hours, WST-1, OD450 nm): 64.9%
- viability at 10 µM (AsPC-1): 76.7%
- viability at 10 µM ([13]; H1650, repeated experiment, read-out: The results of antibiotic drug inhibiting cancer cell lines (cell viability analysis), H1650): 67.3%
- viability at 10 µM ([13]; drug 10 μM, 72 hours, WST-1, OD450 nm, read-out: cell viability (survival rate), H1650): 61.1%
- inhibition effect on different cancer cell lines (cancer cell lines): significant inhibition effect
- viability at 10 µM ([14]; PC-3, repeated experiment, read-out: The results of antibiotic drug inhibiting cancer cell lines (cell viability analysis), PC-3): 98.6%
- viability at 10 µM ([14]; drug 10 μM, 72 hours, WST-1, OD450 nm, read-out: cell viability (survival rate), PC3): 53.8%
- viability at 10 µM ([15]; MKN-45, repeated experiment, read-out: The results of antibiotic drug inhibiting cancer cell lines (cell viability analysis), MKN-45): 86.8%
- viability at 10 µM ([15]; drug 10 μM, 72 hours, WST-1, OD450 nm, read-out: cell viability (survival rate), MKN-45): 42%
- viability at 10 µM [16]: 83.2%
- viability at 10 µM (U-2OS): 92.4%
- viability at 10 µM [17]: 84%
- viability at 10 µM (BxPC-3): 71.6%
- viability at 10 µM [18]: 95.3%
- viability at 10 µM (NIH: OVCAR-3): 99.5%
- viability at 10 µM (T24): 87.4%
